From patent US20070191461A1, “USE OF BENZO-HETEROARYL SULFAMIDE DERIVATIVES FOR THE TREATMENT OF MIGRAINE” (priority 2006, published 2007)
Several values for one entry are separate records, joined by “and”; a condition that tells them apart may be missing. Identical values can stand only once.

Assays:
[1] = test system: KCl-induced cortical spreading depression; test: Cortical spreading depression (CSD) assay as model of migraine; assay type: in vivo, Sprague-Dawley rats; details: rats, 100 mg/kg/day p.o. for 35 days
Procedure: Cortical spreading depression (CSD) has been implicated in migraine and as a headache trigger, and can be evoked in experimental animals by electrical or chemical stimulation (Kunkler & Kraig, 2003; Lauritzen et al., 1982; Moskowitz, 1984).
(§1) Adult male Sprague-Dawley rats (250-600 g) were divided into two treatment groups: vehicle (0.5% methylcellulose; n=13) and Compound #1 (100 mg/kg/day, p.o.; n=7). Results were compared to historical positive controls with valproic acid at 200 mg/kg/day, i.p.
Vehicle or Compound #1 was administered orally once a day for 35 days. On the last day of treatment, rats continued to receive food and water ad libitum, and were given their daily oral dose of vehicle or Compound #1 approximately 1.5 h prior to CSD testing. Rats were anesthetized using isoflurane and intubated via a tracheotomy for mechanical ventilation. Body temperature, blood pressure and heart rate were monitored throughout the procedure to ensure homeostasis. […] The steady (DC) potential and electrocorticogram (EcoG) were recorded with glass micropipettes filled with 200 mM NaCl, […] below the dural surface. […] The number of KCL-induced CSDs was counted for 2 hours. Propagation speed was calculated from the distance (mm) between the recording electrodes 1 and 2, divided by the latency (min) between the CSDs recorded at these sites. […]

[2] = Body weight and systemic physiology monitoring during CSD testing; assay type: in vivo, Sprague-Dawley rats; details: rats, 100 mg/kg/day p.o. for 35 days
Procedure: as §1
Vehicle or Compound #1 was administered orally once a day for 35 days. On the last day of treatment, rats continued to receive food and water ad libitum, and were given their daily oral dose of vehicle or Compound #1 approximately 1.5 h prior to CSD testing. Rats were anesthetized using isoflurane and intubated via a tracheotomy for mechanical ventilation. Body temperature, blood pressure and heart rate were monitored throughout the procedure to ensure homeostasis. Rats were placed in a stereotaxic frame and three burr holes were drilled under saline cooling over the right hemisphere at the following coordinates (mm from bregma): (1) posterior 4.5, lateral 2.0 (occipital cortex): KCL application; (2) posterior 0.5, lateral 2.0 (parietal cortex): recording site 1; (3) anterior 2, lateral 2 (frontal cortex): recording site 2. Dura overlying the occipital cortex was gently removed. The steady (DC) potential and electrocorticogram (EcoG) were recorded with glass micropipettes filled with 200 mM NaCl, […] below the dural surface. An Ag/AgCl reference electrode was placed subcutaneously in the neck. Following surgical preparation, the cortex was allowed to recover for 30 minutes under saline irrigation. Cortical spreading depressions were initiated by placing a cotton ball soaked with 1 M KCl on the pial surface. The number of KCL-induced CSDs was counted for 2 hours. Propagation speed was calculated from the distance (mm) between the recording electrodes 1 and 2, divided by the latency (min) between the CSDs recorded at these sites.

[3] = test system: KCl-induced cortical spreading depression; details: historical positive control, 200 mg/kg/day i.p. for 4 weeks; saline vehicle 18; p<0.05; cited from earlier work

SMILES | Propagation Speed ([1]; KCl-induced CSD, vehicle 3.2 ± 1, p=0.06) | CSDs (2 h) ≧5 mV (number of KCl-induced cortical spreading depressions) ([1]; last dose approx. 1.5 h before testing, topical 1 M KCl, counted for 2 hours, vehicle 16 ± 3, p=0.12) | Physiological monitoring, including arterial pH, pCO2, pO2 and blood pressure, versus vehicle [2] | Systemic Physiology: BP (blood pressure) ([2]; during CSD testing) | Systemic Physiology: pCO2 ([2]; during CSD testing) | Systemic Physiology: pH (arterial) ([2]; during CSD testing) | Systemic Physiology: pO2 ([2]; during CSD testing) | Number of cortical spreading depressions [3]
NS(=O)(=O)NCc1csc2ccccc12 [Compound #1, N-(benzo[b]thien-3-ylmethyl)-sulfamide] | 2.8 ± 0.3 mm/min | 12 and 12 ± 5 | did not differ between the groups | 102 ± 6 | 42 ± 6 | 7.4 ± 0.05 | 154 ± 23 | –
CCCC(CCC)C(=O)O [valproate, valproic acid] | – | – | – | – | – | – | – | 12
